PMC11106739, “Discovery and Derivatization of Tridecaptin Antibiotics with Altered Host Specificity and Enhanced Bioactivity” (ACS Chemical Biology, 2024)
In brackets after ≈: the same amount, converted by molar mass. Where two headings read alike, the source gives them in different places. Where a SMILES comes first, the peptide text is derived from it. Bridges are numbered along the chain shown (N, C = ends). [ ]: non-standard residue; d: D form. The star is where a group is joined. d(aIle) = CC[C@H](C)[C@@H](N)C(=O)O; X1 = CC[C@H](C)CCCCC(=O)*; dDab = NCC[C@@H](N)C(=O)O; Octanoyl = CCCCCCCC(=O)*; Dab = NCC[C@H](N)C(=O)O

Legend:
E. faecalis ATCC 29212 = format: cell-based, Enterococcus faecalis
Method: (§1) All minimum inhibitory concentrations (MICs) were determined according to the Clinical and Standards Laboratory Institute (CLSI) guidelines. In brief, agar plates were inoculated from glycerol stocks and incubated overnight at 35 °C. Peptide DMSO stocks were dispensed into 96-well round-bottom plates using a TECAN D300e dispenser. Colistin sulfate (Sigma-Aldrich) was dissolved in water and serially diluted in a cation-adjusted Mueller Hinton broth (10 μL per well). Final concentrations of the test compounds were 0.06 to 64 μg/mL. Inocula were prepared by direct colony suspension in NaCl at 0.5 MacFarland, which was further diluted 200-fold in cation-adjusted Mueller Hinton broth for a target inoculum of 2 × 10^5 colony forming units (CFUs)/mL. 100 μL portion of the prepared inoculum was added to each well of the prepared plates containing the test compounds. Plates were sealed with parafilm and incubated for 20 h at 35 °C. Images of all plates were recorded, and MIC was assessed visually.

ATCC 25922 = format: cell-based, Enterococcus faecalis
Method: as §1

E. faecium IHMA 890472 = format: cell-based, Enterococcus faecium
Method: as §1

E. faecium ATCC 51559 = format: cell-based, Enterococcus faecium
Method: as §1

P. aeruginosa PAO1 = format: cell-based, Pseudomonas aeruginosa
Method: as §1

P. aeruginosa 1218019 = format: cell-based, Pseudomonas aeruginosa
Method: as §1

P. aeruginosa 1226072 = format: cell-based, Pseudomonas aeruginosa
Method: as §1

A. baumannii IHMA 777621 = format: cell-based, Acinetobacter baumannii
Method: as §1

A. baumannii HUMC1 = format: cell-based, Acinetobacter baumannii
Method: as §1

A. baumannii ATCC 17978 = format: cell-based, Acinetobacter baumannii
Method: as §1

Rabbit red blood cells = test: Hemolysis assay; format: cell-based; settings: rabbit red blood cells in PBS, 37 °C, 1 h, absorbance at 405 nm, normalization to the Triton X-100 control; 0.25 to 128 μg/mL tested
Method: Peptides, dissolved in DMSO, were dispensed into 96-well round-bottom microplates using a TECAN D300e dispenser and subsequently diluted with 100 μL of PBS. PBS or 2% Triton X-100 was used as negative and positive controls, respectively. Rabbit red blood cells (BioConcept) were diluted in PBS to a final concentration of 2%, and 100 μL was added to each well of the prepared 96-well plates. The final concentration of the test compounds was 0.25 to 128 μg/mL. Plates were incubated at 37 °C for 1 h and afterward subjected to centrifugation at 1000g for 5 min. Then, 30 μL of supernatant was transferred to a new round-bottom plate, and absorbance was measured at 405 nm (TECAN Infinite F200). EC50s were calculated after blank subtraction and normalization to the Triton control.

S. aureus UAMS-1625 = format: cell-based, Staphylococcus aureus; settings: S. aureus UAMS-1625 (BV18); CLSI broth dilution, cation-adjusted Mueller Hinton broth, 20 h, 35 °C, read visually
Method: as §1

S. aureus 1126387 = format: cell-based, Staphylococcus aureus
Method: as §1

S. aureus ATCC 29213 = format: cell-based, Staphylococcus aureus
Method: as §1

E. coli 1214245 = format: cell-based, Escherichia coli
Method: as §1

E. coli ATCC 25922 = format: cell-based, Escherichia coli
Method: as §1

E. coli 1220120 = format: cell-based, Escherichia coli
Method: as §1

HepG2 cells = test: Cytotoxicity determination (CellTiter-Glo); format: cell-based; settings: HepG2, medium without serum, 24 h, normalization to the untreated control, 1 to 128 μg/mL tested
Method: HepG2 cells were grown in EMEM (Sigma) supplemented with 2 mM glutamine and 10% fetal bovine serum (Fisher) at 37 °C, 5% CO2. 20′000 cells per well were seeded into clear tissue culture-treated 96-well plates and incubated for 24 h. Peptides, dissolved in DMSO, were dispensed into 96 deep well plates (TECAN D300e dispenser) and diluted to a final concentration of 1 to 128 μg/mL using fresh medium without serum. The next day, the old media were removed from the cells, and 200 μL of the prepared compound dilutions was added per well. Plates were incubated for another 24 h before assessing the cell viability using the CellTiter-Glo kit (Promega) according to the manufacturer’s protocol. IC50s were calculated after normalization to the untreated control.

K. pneumoniae ATCC 13883 = format: cell-based, Klebsiella pneumoniae
Method: as §1

K. pneumoniae 1227947 = format: cell-based, Klebsiella pneumoniae
Method: as §1

K. pneumoniae 1228586 = format: cell-based, Klebsiella pneumoniae
Method: as §1

SMILES	MIC (E. faecalis ATCC 29212; ATCC 29212, 20 h)	MIC (ATCC 25922; ATCC 25922, 20 h)	MIC (E. faecium IHMA 890472; IHMA 890472, 20 h)	MIC (E. faecium ATCC 51559; ATCC 51559, 20 h)	MIC (P. aeruginosa PAO1; PAO1, 20 h)	MIC (P. aeruginosa 1218019; 1218019, 20 h)	MIC (P. aeruginosa 1226072; 1226072, 20 h)	MIC (A. baumannii IHMA 777621; IHMA 777621, 20 h)	MIC (A. baumannii HUMC1; HUMC1, 20 h)	MIC (A. baumannii ATCC 17978; ATCC 17978, 20 h)	Hemolysis EC50 (Rabbit red blood cells)	MIC (S. aureus UAMS-1625)	MIC (S. aureus 1126387; 1126387, 20 h)	MIC (S. aureus ATCC 29213; ATCC 29213, 20 h)	MIC (E. coli 1214245; 1214245, 20 h)	MIC (E. coli ATCC 25922; ATCC 25922, 20 h)	MIC (E. coli 1220120; 1220120, 20 h)	MIC (K. pneumoniae ATCC 13883; ATCC 13883, 20 h)	MIC (K. pneumoniae 1227947; 1227947, 20 h)	MIC (K. pneumoniae 1228586; 1228586, 20 h)	also measured
CCCCCCCC(=O)N[C@@H](C(=O)N[C@H](CCN)C(=O)NCC(=O)N[C@H](CO)C(=O)N[C@H](Cc1c[nH]c2ccccc12)C(=O)N[C@@H](CO)C(=O)N[C@@H](CCN)C(=O)N[C@H](CCN)C(=O)N[C@@H](Cc1c[nH]cn1)C(=O)N[C@@H](CCC(=O)O)C(=O)N[C@H](C(=O)N[C@@H](C(=O)N[C@@H](C)C(=O)O)[C@@H](C)CC)C(C)C)C(C)C [Oct-His9] (Octanoyl-[dV][dDab]G[dS][dW]S[Dab][dDab]HEV[d(aIle)]A-OH)	>64 µg/mL	>64 µg/mL	>64 µg/mL	>64 µg/mL	32 µg/mL (≈ 21.2 µM)	2 µg/mL (≈ 1.32 µM)	4 µg/mL (≈ 2.65 µM)	>64 µg/mL	>64 µg/mL	>64 µg/mL	>128 µg/mL	>64 µg/mL	>64 µg/mL	>64 µg/mL	16 µg/mL (≈ 10.6 µM)	16 µg/mL (≈ 10.6 µM)	8 µg/mL (≈ 5.3 µM)	16 µg/mL (≈ 10.6 µM)	32 µg/mL (≈ 21.2 µM)	8 µg/mL (≈ 5.3 µM)	IC50 on HepG2 w/o FCS (HepG2 cells): >128 µg/mL
CCCCCCCC(=O)N[C@@H](C(=O)N[C@H](CCN)C(=O)NCC(=O)N[C@H](CO)C(=O)N[C@H](Cc1c[nH]c2ccccc12)C(=O)N[C@@H](CO)C(=O)N[C@@H](CCN)C(=O)N[C@H](CCN)C(=O)N[C@H](C(=O)N[C@@H](CCC(=O)O)C(=O)N[C@H](C(=O)N[C@@H](C(=O)N[C@@H](C)C(=O)O)[C@@H](C)CC)C(C)C)[C@@H](C)CC)C(C)C [Oct-Ile9] (Octanoyl-[dV][dDab]G[dS][dW]S[Dab][dDab]IEV[d(aIle)]A-OH)	64 µg/mL (≈ 43 µM)	64 µg/mL (≈ 43 µM)	32 µg/mL (≈ 21.5 µM)	64 µg/mL (≈ 43 µM)	64 µg/mL (≈ 43 µM)	16 µg/mL (≈ 10.8 µM)	16 µg/mL (≈ 10.8 µM)	16 µg/mL (≈ 10.8 µM)	16 µg/mL (≈ 10.8 µM)	16 µg/mL (≈ 10.8 µM)	>128 µg/mL	>64 µg/mL	>64 µg/mL	64 µg/mL (≈ 43 µM)	2 µg/mL (≈ 1.35 µM)	2 µg/mL (≈ 1.35 µM)	2 µg/mL (≈ 1.35 µM)	2 µg/mL (≈ 1.35 µM)	4 µg/mL (≈ 2.69 µM)	4 µg/mL (≈ 2.69 µM)	
CCCCCCCC(=O)N[C@@H](C(=O)N[C@H](CCN)C(=O)NCC(=O)N[C@H](CO)C(=O)N[C@H](Cc1c[nH]c2ccccc12)C(=O)N[C@@H](CO)C(=O)N[C@@H](CCN)C(=O)N[C@H](CCN)C(=O)N[C@@H](Cc1ccc(O)cc1)C(=O)N[C@@H](CCC(=O)O)C(=O)N[C@H](C(=O)N[C@@H](C(=O)N[C@@H](C)C(=O)O)[C@@H](C)CC)C(C)C)C(C)C [Oct-Tyr9] (Octanoyl-[dV][dDab]G[dS][dW]S[Dab][dDab]YEV[d(aIle)]A-OH)	64 µg/mL (≈ 41.6 µM)	64 µg/mL (≈ 41.6 µM)	32 µg/mL (≈ 20.8 µM)	64 µg/mL (≈ 41.6 µM)	64 µg/mL (≈ 41.6 µM)	4 µg/mL (≈ 2.6 µM)	4 µg/mL (≈ 2.6 µM)	32 µg/mL (≈ 20.8 µM)	32 µg/mL (≈ 20.8 µM)	32 µg/mL (≈ 20.8 µM)		>64 µg/mL	>64 µg/mL	>64 µg/mL	2 µg/mL (≈ 1.3 µM)	2 µg/mL (≈ 1.3 µM)	4 µg/mL (≈ 2.6 µM)	4 µg/mL (≈ 2.6 µM)	4 µg/mL (≈ 2.6 µM)	4 µg/mL (≈ 2.6 µM)	
CC[C@H](C)CCCCC(=O)N[C@@H](CCN)C(=O)N[C@H](C(=O)N[C@@H](CCN)C(=O)N[C@H]1CCNC(=O)[C@H]([C@@H](C)O)NC(=O)[C@H](CCN)NC(=O)[C@H](CCN)NC(=O)[C@H](CC(C)C)NC(=O)[C@@H](CC(C)C)NC(=O)[C@H](CCN)NC1=O)[C@@H](C)O [colistin, reference compound] (X1-[Dab]T[Dab][Dab][Dab][dL]L[Dab][Dab]T; lactam 4-C (inferred); N-terminus assumed)												>64 µg/mL									MIC (E. faecalis ATCC 29212; E. faecalis ATCC 29212 (BV29), CLSI broth dilution, cation-adjusted Mueller Hinton broth, 20 h, 35 °C, read visually): >64 µg/mL; MIC (ATCC 25922; E. faecalis ATCC 25922 (BV99), CLSI broth dilution, cation-adjusted Mueller Hinton broth, 20 h, 35 °C, read visually): >64 µg/mL; MIC (E. faecium IHMA 890472; E. faecium IHMA 890472 (BV144), CLSI broth dilution, cation-adjusted Mueller Hinton broth, 20 h, 35 °C, read visually): >64 µg/mL; MIC (E. faecium ATCC 51559; E. faecium ATCC 51559 (BV159), CLSI broth dilution, cation-adjusted Mueller Hinton broth, 20 h, 35 °C, read visually): >64 µg/mL; MIC (P. aeruginosa PAO1; P. aeruginosa PAO1 (BV34), CLSI broth dilution, cation-adjusted Mueller Hinton broth, 20 h, 35 °C, read visually): 2 µg/mL (≈ 1.71 µM); MIC (P. aeruginosa 1218019; P. aeruginosa 1218019 (BV1544), colistin-resistant, CLSI broth dilution, cation-adjusted Mueller Hinton broth, 20 h, 35 °C, read visually): >64 µg/mL; MIC (P. aeruginosa 1226072; P. aeruginosa 1226072 (BV1551), CLSI broth dilution, cation-adjusted Mueller Hinton broth, 20 h, 35 °C, read visually): 0.5 µg/mL (≈ 0.428 µM); MIC (A. baumannii IHMA 777621; A. baumannii IHMA 777621 (BV94), CLSI broth dilution, cation-adjusted Mueller Hinton broth, 20 h, 35 °C, read visually): 64 µg/mL (≈ 54.7 µM); MIC (A. baumannii HUMC1; A. baumannii HUMC1 (BV374), CLSI broth dilution, cation-adjusted Mueller Hinton broth, 20 h, 35 °C, read visually): 1 µg/mL (≈ 0.855 µM); MIC (A. baumannii ATCC 17978; A. baumannii ATCC 17978 (BV160), CLSI broth dilution, cation-adjusted Mueller Hinton broth, 20 h, 35 °C, read visually): 1 µg/mL (≈ 0.855 µM); MIC (S. aureus 1126387; S. aureus 1126387 (BV1402), CLSI broth dilution, cation-adjusted Mueller Hinton broth, 20 h, 35 °C, read visually): >64 µg/mL; MIC (S. aureus ATCC 29213; S. aureus ATCC 29213 (BV249), CLSI broth dilution, cation-adjusted Mueller Hinton broth, 20 h, 35 °C, read visually): >64 µg/mL; MIC (E. coli 1214245; E. coli 1214245 (BV1469), CLSI broth dilution, cation-adjusted Mueller Hinton broth, 20 h, 35 °C, read visually): 32 µg/mL (≈ 27.4 µM); MIC (E. coli ATCC 25922; E. coli ATCC 25922 (BV23), CLSI broth dilution, cation-adjusted Mueller Hinton broth, 20 h, 35 °C, read visually): 1 µg/mL (≈ 0.855 µM); MIC (E. coli 1220120; E. coli 1220120 (BV1475), CLSI broth dilution, cation-adjusted Mueller Hinton broth, 20 h, 35 °C, read visually): 0.5 µg/mL (≈ 0.428 µM); IC50 on HepG2 w/o FCS (HepG2 cells): >128 µg/mL; MIC (K. pneumoniae ATCC 13883; K. pneumoniae ATCC 13883 (BV306), CLSI broth dilution, cation-adjusted Mueller Hinton broth, 20 h, 35 °C, read visually): 1 µg/mL (≈ 0.855 µM); MIC (K. pneumoniae 1227947; K. pneumoniae 1227947 (BV1445), CLSI broth dilution, cation-adjusted Mueller Hinton broth, 20 h, 35 °C, read visually): 0.5 µg/mL (≈ 0.428 µM); MIC (K. pneumoniae 1228586; K. pneumoniae 1228586 (BV1447), CLSI broth dilution, cation-adjusted Mueller Hinton broth, 20 h, 35 °C, read visually): 64 µg/mL (≈ 54.7 µM)
